From ChEMBL document CHEMBL3098072 (Bioorg Med Chem, 2014) come the findings set out here.

≈ marks a conversion by molar mass, not a printed value. Calls of active or inactive are those of the source. No cut-off for these calls is given here.

The target of data set [1] is T1, Inorganic pyrophosphatase (Mycobacterium tuberculosis (strain ATCC 25618 / H37Rv)) (UniProt P9WI55).
T1 sequence (whole entry): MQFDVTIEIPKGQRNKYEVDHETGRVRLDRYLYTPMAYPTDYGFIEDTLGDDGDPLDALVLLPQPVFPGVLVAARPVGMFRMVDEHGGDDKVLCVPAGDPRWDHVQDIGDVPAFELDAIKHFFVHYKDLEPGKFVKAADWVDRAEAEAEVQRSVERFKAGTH
As to the kind of experiment: Inhibition of Mycobacterium tuberculosis PPase at 100 uM using inorganic pyrophosphate as substrate preincubated for 2 mins followed by substrate addition measured after 6 mins by malachite green assay.

Data set [2] addresses T2, Inorganic pyrophosphatase (Mycobacterium tuberculosis (strain ATCC 25618 / H37Rv), UniProt P9WI55).
T2 sequence (P9WI55 whole entry): T1 sequence (whole entry)
The data set is described as follows: Inhibition of Mycobacterium tuberculosis PPase using inorganic pyrophosphate as substrate preincubated for 2 mins followed by substrate addition measured after 6 mins by malachite green assay.

The subject of data set [3] is Mycobacterium tuberculosis. The data set is described as follows: microbe, parasite or virus in culture. The conditions noted are these: H37Rv, 96 h.
Data set [4] can be described thus: Cytotoxicity against mouse J774A1 cells at 64 uM after 2 hrs by MTS assay relative to control. Type of data set: cell-based. The conditions noted are these: j774.a1, 2 h. On the technique in general: Formazan colour is commonly taken as a measure of viable cells.
Another data set concerns HeLa. The data set is described as follows: Cytotoxicity against human HeLa cells at 64 uM after 2 hrs by MTS assay relative to control. The format is cell-based.
A further data set has as its system Bacillus anthracis. As to the kind of experiment: microbe, parasite or virus in culture. The conditions noted are these: Sterne 34F2, 20 h.
Data set [5] can be described thus: Solubility of the compound in DMSO. The format is physicochemical.
In the next data set the test system is Staphylococcus aureus. The data set is described as follows: microbe, parasite or virus in culture. The conditions noted are these: 20 h.
A further data set concerns Bacillus subtilis. As to the kind of experiment: microbe, parasite or virus in culture. The conditions noted are these: 20 h.

In the case of `Cc1ccc(-c2cnnc(N3CCC(c4cccc(OCc5ccccc5)c4)C3)n2)o1` (stereo not drawn), in [1], the inhibition – broadly, the change of the read-out against control, counted positive when it falls – was 73.2%. For the same compound, the IC50 (commonly the concentration at which inhibition is half-maximal) in data set [2] is 63.2 µM.

For `Clc1cccc(C2CCN(c3nncc(-c4ccc(Br)cc4)n3)C2)c1` (stereo not drawn), in [1], the inhibition worked out at 53%. In [2], this compound had an IC50 of 33.3 µM. Further, the MIC in data set [3] worked out at 30.7 µM (≈ 12.8 µg/mL).

On to `Clc1cccc(C2CCN(c3nncc(-c4ccccc4)n3)C2)c1` (stereo not drawn), for which the Activity result (in data set [4]; in the data set on HeLa) was “Non-toxic” each time.

Consider `Cc1ccc(-c2cnnc(N3CCC(c4cccc(N)c4)C3)n2)o1` (stereo not drawn), for which, in data set [1], the inhibition came to 33.4%. The MIC in data set [3] was 70.1 µM (≈ 22.5 µg/mL).

`Nc1ccc(-c2cnnc(N3CCC(c4cccc(Cl)c4)C3)n2)cc1` (stereo not drawn) came in with an MBC against Bacillus anthracis of 128 µM (≈ 45 µg/mL). For the same compound, the MIC against Bacillus anthracis stood at 16 µM (≈ 5.63 µg/mL); in data set [3], 5.7 µM (≈ 2.01 µg/mL). Besides, the Activity result (in data set [4]; in the data set on HeLa) was “Non-toxic” in each case.

In the case of `Cc1ccc(-c2cnnc(N3CCC(n4cnc5c(N)ncnc54)C3)n2)o1` (stereo not drawn), in data set [1], the inhibition result is “inactive”. For the same compound, in data set [3], the MIC is > 128 µM.

Regarding `Clc1cccc(C2CCN(c3nncc(-c4ccc5c(c4)OCO5)n3)C2)c1` (stereo not drawn), the solubility (commonly how much of the substance goes into solution per volume) in [5] is < 100 µM. Besides, the MIC in [3] is > 16 µM.

In data set [1], `COc1ccc(C2CCN(c3nncc(-c4ccc(C)o4)n3)C2)cc1O` (stereo not drawn) returned an inhibition of 5%. Further, the MIC in [3] is > 128 µM.

As for `Cc1ccc(-c2cnnc(N3CCC(c4ccc(O)c(O)c4)C3)n2)o1` (stereo not drawn), the inhibition result in data set [1] was “inactive”. In [3], the MIC was > 128 µM.

Regarding `Cc1ccc(-c2cnnc(N3CCC(c4cccc(C(F)(F)F)c4)C3)n2)o1` (stereo not drawn), the inhibition in data set [1] amounted to 37.8%. In data set [2], this compound had an IC50 of 355 µM. Further, the MIC in [3] was 52.4 µM (≈ 19.6 µg/mL).

`FC(F)(F)c1ccccc1-c1ccc(-c2cnnc(N3CCC(c4cccc(Cl)c4)C3)n2)o1` (stereo not drawn) displayed an inhibition in data set [1] of 67.7%. Also, the 50% inhibitory concentration (IC50) in data set [2] is 38.3 µM. For the same compound, the MIC in data set [3] is > 128 µM.

In data set [1], `O=[N+]([O-])c1cccc(-c2cnnc(N3CCC(c4cccc(Cl)c4)C3)n2)c1` (stereo not drawn) came in with an inhibition of 39.4%. Moreover, the half-maximal inhibitory concentration (IC50) in data set [2] amounted to 118 µM. For the same compound, the MIC in data set [3] is > 128 µM.

For `COc1ccc(-c2cnnc(N3CCC(c4cccc(Cl)c4)C3)n2)cc1OC` (stereo not drawn), the Activity result (in [4]; in the data set with HeLa) was “Non-toxic” in each case.

Compound `Cc1ccc(-c2cnnc(N3CCC(c4cccc(O)c4)C3)n2)o1` (stereo not drawn) returned an MBC against Bacillus anthracis of 128 µM (≈ 41.3 µg/mL). In addition, the MIC was 64 µM (≈ 20.6 µg/mL) against Bacillus anthracis, > 50 µM in the data set with Staphylococcus aureus, 128 µM (≈ 41.3 µg/mL) against Bacillus subtilis and 60.3 µM (≈ 19.4 µg/mL) in data set [3]. The Activity result (in data set [4]; with HeLa) was “Non-toxic” in each case. For the same compound, the inhibition result in data set [1] was “inactive”.

For the compound `CN[C@H](CC(C)C)C(=O)N[C@H]1C(=O)N[C@@H](CC(N)=O)C(=O)N[C@H]2C(=O)N[C@H]3C(=O)N[C@H](C(=O)N[C@H](C(=O)O)c4cc(O)cc(O)c4-c4cc3ccc4O)[C@H](O)c3ccc(c(Cl)c3)Oc3cc2cc(c3O[C@@H]2O[C@H](CO)[C@@H](O)[C@H](O)[C@H]2O[C@H]2C[C@](C)(N)[C@H](O)[C@H](C)O2)Oc2ccc(cc2Cl)[C@H]1O` [VANCOMYCIN], in the data set with Bacillus anthracis, the MBC is < 1 µM and the MIC was < 1 µM. In the data set with Bacillus subtilis, the MBC was < 1 µM and the MIC was < 1 µM.

In data set [3], `CO[C@H]1/C=C/O[C@@]2(C)Oc3c(C)c(O)c4c(O)c(c(/C=N/N5CCN(C)CC5)c(O)c4c3C2=O)NC(=O)/C(C)=C\C=C\[C@H](C)[C@H](O)[C@@H](C)[C@@H](O)[C@@H](C)[C@H](OC(C)=O)[C@@H]1C` [RIFAMPIN] registered an MIC of 0.08 µM (≈ 0.0658 µg/mL).

`O=[N+]([O-])c1cccc(-c2ccc(-c3cnnc(N4CCC(c5cccc(Cl)c5)C4)n3)o2)c1` (stereo not drawn): the solubility in data set [5] is < 100 µM. In addition, the MIC in data set [3] was > 16 µM.

Turning to `Cc1ccc(-c2cnnc(N3CCC(c4cccc(F)c4)C3)n2)o1` (stereo not drawn), in data set [1], the inhibition turned out to be 21.3%. This compound displayed an MIC in [3] of 38.9 µM (≈ 12.6 µg/mL).

With `Cc1ccc(-c2cnnc(N3CCC(c4cccc([N+](=O)[O-])c4)C3)n2)o1` (stereo not drawn), in [5], the solubility was < 100 µM. For the same compound, the MIC in data set [3] was > 16 µM.

The compound `Cc1ccc(-c2cnnc(N3CCC(c4ccccc4)C3)n2)o1` (stereo not drawn) had an inhibition in [1] of 19.7%. In [3], the MIC amounted to 40.5 µM (≈ 12.4 µg/mL).

For the compound `O=[N+]([O-])c1ccc(-c2cnnc(N3CCC(c4cccc(Cl)c4)C3)n2)cc1` (stereo not drawn), the inhibition in data set [1] is 30.3%. The MIC in data set [3] amounted to 31.2 µM (≈ 11.9 µg/mL).

Turning to `Nc1cccc(-c2cnnc(N3CCC(c4cccc(Cl)c4)C3)n2)c1` (stereo not drawn), the Activity entry (in [4]; with HeLa) was “Non-toxic” in each case.

In the case of `COC(=O)c1cccc(-c2ccc(-c3cnnc(N4CCC(c5cccc(Cl)c5)C4)n3)o2)c1` (stereo not drawn), the solubility in data set [5] was < 100 µM. The MIC in data set [3] is > 16 µM.

For `O=[N+]([O-])c1cccc(-c2ccc(-c3cnnc(N4CCC(c5cccc(Cl)c5)C4)n3)cc2)c1` (stereo not drawn), the inhibition entry in data set [1] was “inactive”. Moreover, the MIC in data set [3] was > 128 µM.

On to `Cc1ccc(-c2cnnc(N3CCC(c4cccc(Cl)c4)C3)n2)o1` (stereo not drawn), for which the inhibition in [1] came out at 45.6%. The IC50 in data set [2] is 148 µM. The compound also gave an MIC in data set [3] of 61 µM (≈ 20.8 µg/mL).

Regarding `Cc1ccc(-c2cnnc(N3CCC(c4cccc(C#N)c4)C3)n2)o1` (stereo not drawn), the inhibition in data set [1] was 10.3%. This compound registered an MIC in data set [3] of 64.4 µM (≈ 21.3 µg/mL).

As for `NNC(=O)c1ccncc1` [ISONIAZID], the MIC in data set [3] was found to be 0.45 µM (≈ 0.0617 µg/mL).
